One may read the EC50 as the concentration at which the effect is half-maximal.

This note sets out measurements from US11607404B2, “Combinations of RAD51 and PARP inhibitors” (Cyteir Therapeutics, Inc., priority 2019, dated 2023).

Series [1] deals with Daudi cell line (AID positive). Kind of series: Primary screening cell killing assay (Cell-Titer Glo, Day 7). Type of series: cell-based. Particulars: Homo sapiens, 168 h; Daudi cells (AID positive), cell death on Day 7; read-out: AID+ EC50. On the procedure: (§1) Primary screening was a phenotypic screen that utilized the synthetic lethal interaction between AID and RAD51 to identify compounds that were both potent and on target. AID expressing cells are dependent upon RAD51 for survival; inhibiting RAD51 in AID positive cells results in a cytotoxic effect.
(§2) The first step was to set up a cell killing assay in the Daudi cell line (AID positive). A 96 well u-bottom plate was prepared by writing the experiment number, plate number, date and initials in the top right corner of the plate lid. With a sterile 300 ml reservoir, and 25 ml serological pipette, evaporation buffer media was pipetted into reservoir in 25 ml increments. Using the liquid handler, 150 ul of evaporation buffer media was pipetted from reservoir into rows A and H, and Columns 1 and 12 of the 96 well u-bottom plate. Cell cultures were counted to obtain the density of cells per ml, and the culture viability. The cell density information was used to obtain 1,000,000 cells from culture using a 5 mL serological pipette into an epi tube. The cell density information from the culture was used to calculate the number of cells and volume of media needed for the assay to seed 1250 cells in 130 ul of media per available culture well in the 96 well u-bottom plate. Rows B through F were used for cells (50 wells in total), with row G left for an empty media control. The calculation was overestimated by 10 mL to account for the dead volume in the 300 ml reservoir. Once the media volume was calculated, the appropriate volume of media was pipetted in 25 mL increments into the 250 mL bottle using a 25 mL serological pipette. The 250 ml bottle was capped tightly, and placed into a 37° C. water bath for 2 minutes. While the culture media was warming, 10 mL of fresh media was pipetted from the 500 mL culture media bottle into a sterile 25 mL reservoir. Using the Eppendorf multichannel pipette, 130 ul of media was piptted from the 25 mL reservoir into row G of the 96 well u-bottom plate. Once the 250 mL bottle of media was warmed, the volume of culture needed was pipetted into the bottle, and mixed gently with a 25 mL serological pipette as to not create bubbles, and then the contents of the bottle were pipetted into a new 300 mL reservoir. Using the liquid handler, 130 ul of culture was pipetted from the 300 mL reservoir into rows B through F of the 96 well u-bottom plate. Once the culture was added, the plate was placed into a 37° C. incubator until the compound master plate was prepared for use.
(§3) Two 96 well u-bottom plates were prepared by writing the master plate name in the upper right corner of the plate lid. Labeling one DMSO master and the other Media Master. The compounds of interest were obtained from the laboratory freezer, and placed into a 25 well storage box with a lid, and set the box aside. The compounds were vortexed after thawing but before use. Using an automatic multichannel pipette, 20 ul of 100% DMSO was pipetted into wells B3-B11 through G3-G11 of the DMSO master plate. For each compound on the master plate, 50 ul of the compound were pipetted in the appropriate well of row 2 (reference plate map to determine appropriate well). A serial dilution was prepared beginning by aspirating 20 ul from row 2 and mixing with row 3, repeating until row 11 was reached. Using the liquid handler, 194 ul of Daudi media was dispensed into wells B2-B11 through G2-G11 of the Media master plate. Using the liquid handler, 6 ul from the DMSO master plate was aspirated and dispensed into the media master plate, mixing 100 ul twice.
Compounds from master plate were then added to the culture plate. The culture plates were removed from the incubator, and set inside the biosafety cabinet. Using a liquid handler, 20 ul from wells B2 to B11 through G2 to G11 of master plate were aspirated, and dispensed into wells B2 to B11 through G2 to G11 of culture plate. This set was continued with each culture plate. […]

In series [2] the test system is WI-38 cells (AID negative). Kind of series: Primary screening cell killing assay repeated in AID negative cells. Particulars: Homo sapiens; WI-38 cells (AID negative); read-out: AID− EC50. Type of series: cell-based, Human. How it is done: as §1
Percent cell death and EC50 values were calculated by comparing the cell viability of the compound treated wells to the non-treated wells. Normalized RLU values were obtained by subtracting the media well values from each of the wells in the same column, and then dividing that value by the DMSO treated cells values. The percent kill was then calculated by subtracting the normalized RLU value from 1 and multiplying by 100. The average normalized percent kill value and standard error of the mean was then calculated. The kill values were then inputted into Prism with the corresponding standard errors. In Prism a non-linear regression line was plotted with the data points using a semi-log scale, and the EC50 value was calculated.
The activity of the claimed compounds was measured in a variety of cell lines with different expression levels of activation induced cytidine deaminase (AICDA). The potency assay was repeated in all of the listed cell lines and the EC50 values recorded.

A short description of series [3]: Bi-directional Caco-2 permeability. The class given is in vitro ADME. Particulars: human; for Papp A→B / Papp B→A: Caco-2, 37 C, up to 90 minutes; for Papp A→B: apical to basolateral, read-out: AB Papp (cm/sec × 10^6); for Papp B→A: basolateral to apical, read-out: BA Papp (cm/sec × 10^6); for efflux ratio: Caco-2 efflux ratio, read-out: BA/AB Ratio. On the procedure:
Bi-directional Caco-2 permeability was assayed. Caco-2 cells were seeded onto permeable polycarbonate supports and allowed to differentiate for about 3 weeks prior to being used in the assays. The cells were then exposed to the compounds from either the apical or basolateral sides and incubated at 37 C for up to 90 minutes under light agitation. Compound transport was then measured using LC/MS/MS analysis at 30, 60, and 90 minutes.
For orientation: Caco-2 monolayers are a common model of the intestinal barrier.

The nature of series [4]: Human liver microsome stability. The class given is in vitro ADME. Particulars: percentage of hepatic blood flow. How it is done:
The stability of the claimed compounds was determined in the presences of human liver microsomes. The compounds were incubated with the microsomes at 37° C. for 45 minutes. Samples were analyzed using LC-MS/MS. Data analysis included half-life, clearance rate, and the percentage of hepatic blood flow (% QH) for each of the compounds in the different species.

In series [5] the test system is ARPE19/HPV16 (HPV Immortalized RPE). Kind of series: Cell line screen (potency assay). Type of series: cell-based. Particulars: ARPE-19, AICDA expression Negative. On the procedure:
as §2, §3
Compounds from master plate were then added to the culture plate. The culture plates were removed from the incubator, and set inside the biosafety cabinet. Using a liquid handler, 20 ul from wells B2 to B11 through G2 to G11 of master plate were aspirated, and dispensed into wells B2 to B11 through G2 to G11 of culture plate. This set was continued with each culture plate. Once the culture plates acquired their 20 ul of compound dilutions, they were placed back into the incubator, until their reads on Day 7 of experiment. Cell death was measured on Day 7 of the experiment using Cell-Titer Glo and a Promega Plate reader. […]

A short description of series [6]: Pharmacokinetic (PK) study. Type of series: in vivo, Rat. Particulars: po @ 80 mg/kg (30% PEG400, 10% Vitamin E TPGS in water). On the procedure: PK studies in mice were used to determine the fate of the compounds in a whole organism. Rats were treated with the compounds either orally of via IV at the indicated doses and followed for up to 24 hours. Plasma samples were taken at different time points and analyzed by LC-MS.

[7] abbreviates: Caco-2, apical to basolateral, read-out: AB Recovery %.
The mark [8] stands for this setting: Caco-2, basolateral to apical, read-out: BA Recovery %.

Like-named read-outs stand apart in the source and are kept apart here.

With `CC(C)OC(=O)N[C@@H]1CCC(c2ncc(-c3ccc(NC(=O)NCc4ccccc4)cc3S(=O)(=O)NC(C)(C)C)s2)OC1` (mixture of isomers) [Compound 59], the concentration for a half-maximal effect (EC50) in series [1] is ≤ 100 nM; in series [2], > 1000 nM.
On to `CC(C)(C)NS(=O)(=O)c1cc(NC(=O)NCc2ccccc2)ccc1-c1cnc(C2CCC(NC(=O)OC(C)(C)C)CC2)s1` (centres unmarked) [Compound 10], for which the concentration for a half-maximal effect (EC50) in series [1] was ≤ 100 nM. Moreover, in series [2], the EC50 is > 1000 nM. The recovery at 90 min in series [3] (setting [7]) amounted to 59.9%. Besides, the recovery at 90 min in series [3] (setting [8]) was found to be 87.2%. Moreover, in series [3], the Papp A→B amounted to 1.2 ×10⁻⁶ cm/s, the Papp B→A is 1.5 ×10⁻⁶ cm/s and the efflux ratio is 1.3.
Regarding `CC(C)OC(=O)NC1CCC(c2ncc(-c3ccc(NC(=O)N[C@H](C)c4ccccc4)cc3S(=O)(=O)NC(C)(C)C)s2)CC1` (some centres unmarked) [Compound 24], the EC50 in series [1] is ≤ 100 nM; in series [2] it was > 1000 nM.
The corresponding values for `CC(C)OC(=O)NC1CCC(c2ncc(-c3ccc(NC(=O)N[C@@H](C)c4ccccc4)cc3S(=O)(=O)NC(C)(C)C)s2)CC1` (some centres unmarked) [Compound 26] are ≤ 100 nM and > 1000 nM.
For the molecule `CC(C)OC(=O)NC1CCC(c2ncc(-c3ccc(NC(=O)NCc4cccc(F)c4)cc3S(=O)(=O)NC(C)(C)C)s2)CC1` (centres unmarked) [Compound 27], the concentration giving a half-maximal response (EC50) in series [1] was ≤ 100 nM; in series [2] it was > 1000 nM. The recovery at 90 min in series [3] (setting [7]) came to 92%; in series [3] (setting [8]), 107%.
With `CC(C)OC(=O)NC1CCC(c2ncc(-c3ccc(NC(=O)N[C@H](C)c4ccccn4)cc3S(=O)(=O)NC(C)(C)C)s2)CC1` (some centres unmarked) [Compound 30], the EC50 in series [1] is ≤ 100 nM; in series [2], > 1000 nM. The recovery at 90 min worked out at 79.8% in series [3] (setting [7]) and 116% in series [3] (setting [8]).
For the molecule `CC(C)OC(=O)NC1CCC(c2ncc(-c3ccc(NC(=O)N[C@@H](C)c4ccccn4)cc3S(=O)(=O)NC(C)(C)C)s2)CC1` (some centres unmarked) [Compound 32], the EC50 in series [1] was ≤ 100 nM; in series [2], > 1000 nM.
The matching figures for `CC(C)OC(=O)NC1CCC(c2ncc(-c3ccc(NC(=O)O[C@H](C)c4ccccc4)cc3S(=O)(=O)NC(C)(C)C)s2)CC1` (some centres unmarked) [Compound 43]: ≤ 1000 nM and > 1000 nM.
As for `CC(C)(C)NS(=O)(=O)c1cc(NC(=O)NCc2ccccc2)ccc1-c1cnc(C2CCC(NC(=O)OC3COC3)CC2)s1` (centres unmarked) [Compound 47], the EC50 in series [1] was ≤ 100 nM. For the same molecule, the EC50 in series [2] was > 1000 nM. For the same molecule, the recovery at 90 min in series [3] (setting [7]) stood at 65.3%. Also, in series [3] (setting [8]), the recovery at 90 min amounted to 80.7%. Also, in series [3], the Papp A→B came to 8.7 ×10⁻⁶ cm/s, the Papp B→A came to 12.4 ×10⁻⁶ cm/s and the efflux ratio turned out to be 1.4.
Take `CC(C)(C)NS(=O)(=O)c1cc(NC(=O)OC2COC2)ccc1-c1cnc(C2CCC(NC(=O)OC3COC3)CC2)s1` (centres unmarked) [Compound 49]: the EC50 was ≤ 1000 nM in series [1] and > 1000 nM in series [2].
Turning to `CC(C)OC(=O)NC1CCC(c2nc(F)c(-c3ccc(NC(=O)NCc4ccccc4)cc3S(=O)(=O)NC(C)(C)C)s2)CC1` (centres unmarked) [Compound 57], in series [1], the EC50 is ≤ 100 nM. The EC50 in series [2] was > 1000 nM. Moreover, the recovery at 90 min in series [3] (setting [7]) is 61.9%. In addition, the recovery at 90 min in series [3] (setting [8]) stood at 86.8%. Also, in series [3], the Papp A→B came to 1.3 ×10⁻⁶ cm/s, the Papp B→A is 3.5 ×10⁻⁶ cm/s and the efflux ratio was determined as 2.7.
Regarding `CC(C)OC(=O)N[C@@H]1CCC(c2ncc(-c3ccc(NC(=O)NCc4ccccc4)cc3S(=O)(=O)NC(C)(C)C)s2)NC1` (some centres unmarked) [Compound 64], the figures for the concentration giving a half-maximal response (EC50) in series [1] and in series [2] were ≤ 100 nM and > 1000 nM, respectively. Moreover, the recovery at 90 min stood at 79.7% in series [3] (setting [7]) and 95.9% in series [3] (setting [8]).
Regarding `CC(C)OC(=O)N[C@H]1CC[C@H](c2ncc(-c3ccc(NC(=O)NCc4ccccc4)cc3S(=O)(=O)NC(C)(C)C)s2)CC1` [Compound 66A], the “Human Liver Microsome Stability % QH” value in series [4] amounted to 49.6%. Besides, the EC50 in series [5] is > 10000 nM. Further, the entries for the “F (%) @ 5 mg/kg” value in series [6] (Rat Female) and in series [6] (Rat Male) were 3.31% and 2.55%, respectively.
For `CC(C)OC(=O)NC1CCC(c2ncc(-c3ccc(NC(=O)NCc4ccc(O)cc4)cc3S(=O)(=O)NC(C)(C)C)s2)CC1` (centres unmarked) [Compound 73], the 50% effective concentration (EC50) was ≤ 100 nM in series [1] and > 1000 nM in series [2].
The matching figures for `CC(C)OC(=O)NC1CCC(c2ncc(-c3ccc(NC(=O)NCc4ccccc4)cc3S(=O)(=O)NC(C)(C)CO)s2)CC1` (centres unmarked) [Compound 74]: ≤ 100 nM and > 1000 nM.
